Test results reported in ChEMBL document CHEMBL1909281, “FDA-approved drug labeling for the study of drug-induced liver injury” (Drug Discov Today, 2011).

test system: Hepatotoxicity; assay: FDA Liver Toxicity Knowledge Base Benchmark Dataset (LTKB-BD) drugs of most concern for DILI; details: not given

| Structure (SMILES) | LTKB_BD DILI severity score |
| --- | --- |
| C[C@H](Cn1cnc2c(N)ncnc21)OCP(=O)(O)O [TENOFOVIR ANHYDROUS] | 8 |
| CN(C/C=C/C#CC(C)(C)C)Cc1cccc2ccccc12 [TERBINAFINE] | 8 |
| COc1cc(C(=O)NS(=O)(=O)c2ccccc2C)ccc1Cc1cn(C)c2ccc(NC(=O)OC3CCCC3)cc12 [ZAFIRLUKAST] | 8 |
| Cc1cn([C@H]2C[C@H](N=[N+]=[N-])[C@@H](CO)O2)c(=O)[nH]c1=O [ZIDOVUDINE] | 8 |
| CC(c1cc2ccccc2s1)N(O)C(N)=O (stereo not drawn) [ZILEUTON] | 5 |

same assay, conditions: Liver

| Structure (SMILES) | LTKB_BD DILI severity score |
| --- | --- |
| Clc1ccccc1CN1CCc2sccc2C1 [TICLOPIDINE] | 4 |
| Cc1ccc(C(=O)c2cc(O)c(O)c([N+](=O)[O-])c2)cc1 [TOLCAPONE] | 8 |
| Nc1ccn([C@H]2CC[C@@H](CO)O2)c(=O)n1 [ZALCITABINE] | 8 |
